According to ChEMBL document CHEMBL4400573, “Synthesis and structure-activity relationships of pyrazine-2-carboxamide derivatives as novel echinoderm microtubule-associated protein-like 4 (EML4)-anaplastic lymphoma kinase (ALK) inhibitors” (Bioorg Med Chem, 2019):
Values after ≈ are worked out from the molar mass of the structure shown.

Tests used:
[1] = Inhibition of EML4-fused ALK variant 1 (unknown origin) expressed in mouse BAF3 cells using peptide substrate measured after 1 hr by HTRF assay; assay type: cell-based, Homo sapiens
BaF3 = test: Antiproliferative activity against mouse BAF3 cells expressing EML4-fused ALK variant 1 assessed as reduction in cell viability measured after 2 days by alamar blue assay; assay type: functional, cell-based; details: BaF3, 48 h
[2] = Aqueous solubility of the compound in pH 6.8 JP2 fluid measured after 20 hrs by HPLC analysis; assay type: physicochemical
NIH3T3 [3] = test: Antitumor activity against mouse 3T3 cells expressing EML4-fused ALK variant 1 xenografted in Balb/c nude mouse assessed as tumor growth inhibition at 10 mg/kg, po administered once daily for 5 days measured post last dose relative to control; assay type: functional; set-up: Activity: scale not given: the % may be the effect or the level left
[4] = Toxicity in Balb/c nude mouse xenografted with mouse 3T3 cells expressing EML4-fused ALK variant 1 assessed as effect on body weight at 10 mg/kg, po administered once daily for 5 days; assay type: organism-based; details: in vivo, 120 h
[5] = Permeability of the compound at pH 6.5 measured after 2 hrs by PAMPA; assay type: ADME; details: read-out: permeability
NIH3T3 [6] = test: Antitumor activity against mouse 3T3 cells expressing EML4-fused ALK variant 1 xenografted in Balb/c nude mouse assessed as tumor regression at 10 mg/kg, po administered once daily for 5 days measured post last dose relative to control; assay type: functional

Compound	IC50 [1] [nM]	IC50 (BaF3) [nM]	other results
CCc1nc(C(N)=O)c(Nc2ccc(N3CCC(N4CCN(C)CC4)CC3)c(OC)c2)nc1N[C@H]1CC[C@H](O)CC1	0.37	9.5	solubility at 20 h [2]: ≥ 100 µM; Activity (NIH3T3 [3]): 34%; Activity [4]: Toxic; Papp at 2 h [5]: 1.1 ×10⁻⁶ cm/s
CCc1nc(C(N)=O)c(Nc2ccc(N3CCC(N4CCN(C)CC4)CC3)c(OC)c2)nc1N[C@H]1CC[C@H](OC)CC1	1	9.7	Activity (NIH3T3 [6]): 62%; Activity [4]: Toxic; Papp at 2 h [5]: 21 ×10⁻⁶ cm/s
CCc1nc(C(N)=O)c(Nc2ccc(N3CCC(N4CCN(C)CC4)CC3)cc2OC)nc1N[C@H]1CC[C@H](O)CC1	8.9	85	solubility at 20 h [2]: ≥ 100 µM
CCc1nc(C(N)=O)c(Nc2cccc(S(C)(=O)=O)c2)nc1N[C@H]1CC[C@H](O)CC1	17	68	solubility at 20 h [2]: 1.1 µM (≈ 0.477 µg/mL)
CCNc1nc(Nc2ccc(N3CCC(N4CCN(C)CC4)CC3)c(OC)c2)c(C(N)=O)nc1CC	2.5	16	
COc1cc(N2CCC(N3CCN(C)CC3)CC2)ccc1Nc1ncnc(Nc2ccccc2S(=O)(=O)C(C)C)n1 [ASP-3026]	17		inhibition in vivo at 10 mg/kg (NIH3T3 [3]; Mus musculus, NIH3T3, po, 120 h, read-out: TGI): 81%; Activity [4]: Non-Toxic
CCc1nc(C(N)=O)c(Nc2ccc(N3CCC(N4CCN(C)CC4)CC3)c(OC)c2)nc1NC(C)C	0.8	12	
CS(=O)(=O)c1cccc(Nc2nc(N[C@H]3CC[C@H](O)CC3)c(Cl)nc2C(N)=O)c1	82		
CCCc1nc(C(N)=O)c(Nc2cccc(S(C)(=O)=O)c2)nc1N[C@H]1CC[C@H](O)CC1	23		
Cc1nc(C(N)=O)c(Nc2cccc(S(C)(=O)=O)c2)nc1N[C@H]1CC[C@H](O)CC1	51		
CS(=O)(=O)c1cccc(Nc2nc(N[C@H]3CC[C@H](O)CC3)c(C3CC3)nc2C(N)=O)c1	37		
CCc1nc(C(N)=O)c(Nc2ccc(N3CCC(N4CCN(C)CC4)CC3)c(OC)c2)nc1N[C@@H]1CCCC[C@H]1O (racemic)	13	48	
CCc1nc(C(N)=O)c(Nc2ccc(N3CCC(N4CCN(C)CC4)CC3)c(OC)c2)nc1N(C)CC	6.6	31	
CS(=O)(=O)c1cccc(Nc2nc(N[C@H]3CC[C@H](O)CC3)c(Br)nc2C(N)=O)c1	82		
CS(=O)(=O)c1cccc(Nc2nc(N[C@H]3CC[C@H](O)CC3)cnc2C(N)=O)c1	270		
